Test results from patent US20040077880A1 (priority 2000, published 2004).

Test system: not listed separately
Test: logP determination by HPLC (EEC Directive 79/831 Annex V. A8)
Assay type: physicochemical
Details: gradient method, acetonitrile/0,1% aqueous phosphoric acid
Procedure: The logP values were determined in accordance with EEC Directive 79/831 Annex V. A8 by HPLC (Gradient method, acetonitrile/0,1% aqueous phosphoric acid)

**Q.** For `Cc1noc(C)c1S(=O)(=O)n1c(C)c(Br)c(Br)c1C#N` [Example 1, 3,4-dibromo-1-[(3,5-dimethyl-4-isoxazolyl)-sulfonyl]-5-methyl-1H-pyrrole-2-carbonitrile], which chromatographic logP is on record?
**A.** Its chromatographic logP is 3.62.

**Q.** Which chromatographic logP does the source give for `Cc1noc(C)c1S(=O)(=O)n1c(Br)c(Br)c(Br)c1C#N` [Example 3] here?
**A.** The chromatographic logP was 3.58.

**Q.** Which chromatographic logP does the source give for `Cc1noc(C)c1S(=O)(=O)n1cc(Cl)c(Cl)c1C#N` [Example 11] here?
**A.** Its chromatographic logP is 3.13.

Test system: Phytophthora infestans
Test: not given
Assay type: in vivo
Details: tomato plants, protective spray, application rate 50 g/ha, evaluation three days after inoculation; 100% = no infection

**Q.** For `Cc1noc(C)c1S(=O)(=O)n1c(Br)c(Br)c(Br)c1C#N` [drawing 9], which Efficacy in % is on record?
**A.** The Efficacy in % was 98%.

**Q.** With `Cc1noc(C)c1S(=O)(=O)n1cc(Cl)c(Cl)c1C#N` [drawing 10] as the compound, how does the Efficacy in % read?
**A.** Its Efficacy in % is 95%.

**Q.** Which Efficacy in % does the source give for `Cc1noc(C)c1S(=O)(=O)n1cc(Cl)c(Cl)c1C#N` [drawing 11] here?
**A.** The Efficacy in % was 94%.
